What was measured:
A2780 (ovary) cells = assay: Inhibition of the proliferation/vitality of tumour cells (Alamar Blue test); assay type: cell-based; settings: Homo sapiens, 96 h, 4 days cultivation with test substance in serum-containing medium, Alamar Blue readout
Description: In the present experiment description, the inhibition of tumour cell proliferation/tumour cell vitality by active ingredients is described. The cells are sown in a suitable cell density in microtitre plates (96-well format) and the test substances are added in the form of a concentration series. After four further days of cultivation in serum-containing medium, the tumour cell proliferation/tumour cell vitality can be determined by means of an Alamar Blue test system.
The cells are cultivated in medium. At intervals of several days, the cells are detached from the culture dishes with the aid of trypsin solution and sown in suitable dilution in fresh medium. The cells are cultivated at 37° Celsius and 10% CO2. […]
In each case, 20 μl of Alamar Blue reagent are added per well, and the microtitre plates are incubated, for example, for a further seven hours in a CO2 incubator (at 37° C. and 10% CO2). The plates are measured in a reader with a fluorescence filter at a wavelength of 540 nm. […]
The absorbance value of the medium control (no cells and test substances used) is subtracted from all other absorbance values. The controls (cells without test substance) are set equal to 100 percent, and all other absorbance values are set in relation thereto (for example in % of control):
IC50 values (50% inhibition) are determined with the aid of statistics programs, such as, for example, RS1.

Row | melting point | IC50 (A2780 (ovary) cells) | SMILES
1 | 184 to 187 °C (dec.) | – | CCCCc1cc(-c2c[nH]c3cnccc23)nc(N)n1 [Compound A1, 4-butyl-6-(1H-pyrrolo[2,3-c]pyridin-3-yl)pyrimidin-2-ylamine]
2 | – | 10 to 1000 nM | c1ccc(Nc2nccc(-c3c[nH]c4cnccc34)n2)cc1 [Compound A3, phenyl-[4-(1H-pyrrolo[2,3-c]pyridin-3-yl)pyrimidin-2-yl]-amine]
3 | – | 10 to 1000 nM | Nc1nccc(-c2c[nH]c3cnccc23)n1 [Compound A4, 4-(1H-pyrrolo[2,3-c]pyridin-3-yl)pyrimidin-2-ylamine]
